Series [1] is described as follows: logP determination by HPLC on reversed phase column (C 18), EEC Directive 79/831 Annex V.A8. The conditions noted are these: reversed phase C18 HPLC column; pH=2.3. In kind it is physicochemical. The protocol: Determination of the logP values indicated in Table 1 took place in accordance with EEC Directive 79/831 Annex V.A8 by HPLC (high performance liquid chromatography) on a reversed phase column (C 18). Temperature: 43° C. (a) Eluent for determination in the acidic range: 0.1% aqueous phosphoric acid, acetonitrile; linear gradient from 10% acetonitrile to 90% acetonitrile—corresponding measured results are marked with ^a) in Table 1. Calibration took place with unbranched alkan-2-ones (having 3 to 16 carbon atoms) whose logP values are known (determination of the logP values on the basis of the retention times by linear interpolation between two consecutive alkanones).

Series [2] relates to weeds. Kind of series: Pre-emergence test (Example A), effect on weeds. In kind it is in vivo. The conditions noted are these: soil sprayed 24 hours after sowing, assessed after three weeks. The procedure: To produce an expedient preparation of active substance, 1 part by weight of active substance is mixed with the stated amount of solvent, the stated amount of emulsifier is added and the concentrate is diluted with water to the required concentration.
Seeds of the test plants are sown in normal soil. After 24 hours, the soil is sprayed with the active substance preparation in such a way that the respective desired application rate of active substance per unit area is achieved. The active substance concentration in the spray liquor is selected so that the respective required application rate of active substance is achieved with 1000 litres of water per hectare.
After three weeks, the degree of damage to the plants is assessed in % damage by comparison with the development of the untreated control.

Series [3] has as its system weeds. Kind of series: Post-emergence test (Example B), effect on weeds. The format is in vivo. The conditions noted are these: test plants 5-15 cm high sprayed, assessed after three weeks. The protocol: To produce an expedient preparation of active substance, 1 part by weight of active substance is mixed with the stated amount of solvent, the stated amount of emulsifier is added, and the concentrate is diluted with water to the required concentration.
The active substance preparation is used to spray test plants which are 5-15 cm high in such a way that the respective desired application rate of active substance per unit area is achieved. The concentration of the spray liquor is chosen so that the respective required application rates of active substance are achieved in 1000 l of water/ha.
After three weeks, the degree of damage to the plants is assessed in % damage by comparison with the development of the untreated control. The meanings are:
0%=no effect (as untreated control)

The structures appear in SMILES notation.

As a reminder, the chromatographic logP is a lipophilicity value derived from retention on a column. Read a high chromatographic logP as higher lipophilicity. Consider `N#C/N=C1\SCCN1Cc1cc(C(F)(F)F)ccc1C(=O)O` [Example (II-2), 2-[(2-cyanoimino-1,3-thiazolidin-3-yl)methyl]-4-trifluoro-methylbenzoic acid], for which the chromatographic logP in series [1] stood at 2.01.

In series [1], `N#C/N=C1\SCCN1Cc1cc(C(F)(F)F)ccc1C(=O)C1C(=O)CCCC1=O` [Example 2, 3-[2-[(2,6-dioxocyclohexyl)carbonyl]-5-trifluoromethyl-benzyl]-1,3-thiazolidin-2-ylidenecyanamide] registered a chromatographic logP of 2.54. In addition, the “effect on weeds (degree of damage vs untreated control)” value in series [2] was “strong effect on weeds”.

`N#C/N=C1\SCCN1Cc1c(Cl)ccc(C(=O)C2C(=O)CCCC2=O)c1Cl` [Example 1, 3-[2,6-dichloro-3-[(2,6-dioxocyclohexyl)carbonyl]benzyl]-1,3-thiazolidin-2-ylidenecyanamide]: the “effect on weeds (degree of damage vs untreated control)” value in series [3] and in series [2] was “strong effect on weeds” in each case.

Regarding `COC(=O)c1ccc(C(F)(F)F)cc1CN1CCS/C1=N\C#N` [Example (IIa-2), methyl 2-[(2-cyanoimino-1,3-thiazolidin-3-yl)methyl]-4-trifluoromethylbenzoate], the chromatographic logP in series [1] was determined as 2.53.

Values taken from patent US20040097376A1, “Substituted aryl ketones and their use as herbicides” (priority 2000, published 2004).
